ChEMBL document CHEMBL2216752, “Carnitine palmitoyltransferase (CPT) modulators: a medicinal chemistry perspective on 35 years of research” (J Med Chem, 2011)

Legend:
[1] = target: T1, Carnitine O-palmitoyltransferase 1, liver isoform (Homo sapiens, UniProt P50416); assay: Inhibition of human CPT1A expressed in Saccharomyces cerevisiae mitochondria assessed as palmitoylcarnitine by HPLC method
T1 sequence (P50416 whole entry): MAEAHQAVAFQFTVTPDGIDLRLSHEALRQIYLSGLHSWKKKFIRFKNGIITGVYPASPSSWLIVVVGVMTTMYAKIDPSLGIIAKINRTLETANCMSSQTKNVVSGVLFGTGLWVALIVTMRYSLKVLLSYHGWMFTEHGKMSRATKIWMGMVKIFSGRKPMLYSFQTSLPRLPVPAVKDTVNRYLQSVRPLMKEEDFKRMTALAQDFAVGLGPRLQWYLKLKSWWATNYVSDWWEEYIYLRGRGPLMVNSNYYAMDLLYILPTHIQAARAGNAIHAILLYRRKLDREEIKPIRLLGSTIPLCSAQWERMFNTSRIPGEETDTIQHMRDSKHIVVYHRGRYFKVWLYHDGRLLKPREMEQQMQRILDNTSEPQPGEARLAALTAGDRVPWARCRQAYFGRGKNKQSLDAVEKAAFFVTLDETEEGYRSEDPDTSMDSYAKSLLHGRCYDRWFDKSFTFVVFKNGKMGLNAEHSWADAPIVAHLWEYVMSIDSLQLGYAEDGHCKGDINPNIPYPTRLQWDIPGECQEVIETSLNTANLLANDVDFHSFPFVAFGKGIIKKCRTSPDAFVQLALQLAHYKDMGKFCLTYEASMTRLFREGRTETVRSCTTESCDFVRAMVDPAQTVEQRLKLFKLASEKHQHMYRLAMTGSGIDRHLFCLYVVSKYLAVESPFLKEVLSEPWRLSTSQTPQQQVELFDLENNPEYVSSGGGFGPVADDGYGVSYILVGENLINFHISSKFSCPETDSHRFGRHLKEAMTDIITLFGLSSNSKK

[2] = target: T2, Carnitine O-palmitoyltransferase 2, mitochondrial (Rattus norvegicus, UniProt P18886); assay: Inhibition of rat CPT2
T2 sequence (P18886 whole entry): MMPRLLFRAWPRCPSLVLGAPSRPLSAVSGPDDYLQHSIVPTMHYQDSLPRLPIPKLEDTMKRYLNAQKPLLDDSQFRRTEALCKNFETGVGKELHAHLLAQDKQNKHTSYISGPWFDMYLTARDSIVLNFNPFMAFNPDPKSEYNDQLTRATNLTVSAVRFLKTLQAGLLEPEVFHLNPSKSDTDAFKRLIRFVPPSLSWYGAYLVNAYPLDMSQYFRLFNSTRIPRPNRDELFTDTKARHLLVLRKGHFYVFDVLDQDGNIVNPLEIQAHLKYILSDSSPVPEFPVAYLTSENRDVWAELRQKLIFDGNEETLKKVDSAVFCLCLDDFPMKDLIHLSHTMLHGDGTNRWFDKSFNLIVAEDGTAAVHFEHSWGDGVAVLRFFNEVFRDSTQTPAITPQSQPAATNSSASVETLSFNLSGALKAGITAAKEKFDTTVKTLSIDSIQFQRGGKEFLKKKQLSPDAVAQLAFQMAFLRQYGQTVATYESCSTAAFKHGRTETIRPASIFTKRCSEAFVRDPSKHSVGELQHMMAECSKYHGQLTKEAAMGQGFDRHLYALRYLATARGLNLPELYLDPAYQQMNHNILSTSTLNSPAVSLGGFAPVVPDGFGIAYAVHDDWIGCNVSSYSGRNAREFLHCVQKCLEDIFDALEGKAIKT

[3] = target: T3, Carnitine O-palmitoyltransferase 1, muscle isoform (Homo sapiens, UniProt Q92523); assay: Inhibition of human CPT1B
T3 sequence (Q92523 whole entry): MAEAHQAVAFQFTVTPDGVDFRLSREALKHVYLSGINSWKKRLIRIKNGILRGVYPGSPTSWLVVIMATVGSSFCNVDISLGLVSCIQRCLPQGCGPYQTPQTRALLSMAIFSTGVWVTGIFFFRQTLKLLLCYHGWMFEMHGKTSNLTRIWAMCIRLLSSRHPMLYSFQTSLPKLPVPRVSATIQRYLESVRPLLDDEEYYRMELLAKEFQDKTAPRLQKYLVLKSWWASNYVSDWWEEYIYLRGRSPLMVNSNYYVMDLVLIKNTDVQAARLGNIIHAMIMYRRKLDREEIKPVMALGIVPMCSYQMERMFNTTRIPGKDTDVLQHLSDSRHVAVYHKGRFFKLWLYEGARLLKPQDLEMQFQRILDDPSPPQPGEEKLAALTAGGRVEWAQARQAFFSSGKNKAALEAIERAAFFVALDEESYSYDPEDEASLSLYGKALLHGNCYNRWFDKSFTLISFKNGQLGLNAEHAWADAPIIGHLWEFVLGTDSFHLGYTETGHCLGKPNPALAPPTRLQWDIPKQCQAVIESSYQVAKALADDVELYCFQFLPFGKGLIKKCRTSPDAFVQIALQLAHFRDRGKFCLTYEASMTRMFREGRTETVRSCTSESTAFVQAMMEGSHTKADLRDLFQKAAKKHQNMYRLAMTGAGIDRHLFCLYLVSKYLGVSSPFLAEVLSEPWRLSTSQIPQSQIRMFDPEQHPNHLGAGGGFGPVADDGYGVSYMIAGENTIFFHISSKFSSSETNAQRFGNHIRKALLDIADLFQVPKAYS

[4] = target: T1, Carnitine O-palmitoyltransferase 1, liver isoform; assay: Inhibition of human CPT1A
[5] = Inhibition of rat FAO
[6] = Inhibition of human FAO
[7] = target: T4, Carnitine O-palmitoyltransferase 2, mitochondrial (Homo sapiens, UniProt P23786); assay: Inhibition of human CPT2
T4 sequence (P23786 whole entry): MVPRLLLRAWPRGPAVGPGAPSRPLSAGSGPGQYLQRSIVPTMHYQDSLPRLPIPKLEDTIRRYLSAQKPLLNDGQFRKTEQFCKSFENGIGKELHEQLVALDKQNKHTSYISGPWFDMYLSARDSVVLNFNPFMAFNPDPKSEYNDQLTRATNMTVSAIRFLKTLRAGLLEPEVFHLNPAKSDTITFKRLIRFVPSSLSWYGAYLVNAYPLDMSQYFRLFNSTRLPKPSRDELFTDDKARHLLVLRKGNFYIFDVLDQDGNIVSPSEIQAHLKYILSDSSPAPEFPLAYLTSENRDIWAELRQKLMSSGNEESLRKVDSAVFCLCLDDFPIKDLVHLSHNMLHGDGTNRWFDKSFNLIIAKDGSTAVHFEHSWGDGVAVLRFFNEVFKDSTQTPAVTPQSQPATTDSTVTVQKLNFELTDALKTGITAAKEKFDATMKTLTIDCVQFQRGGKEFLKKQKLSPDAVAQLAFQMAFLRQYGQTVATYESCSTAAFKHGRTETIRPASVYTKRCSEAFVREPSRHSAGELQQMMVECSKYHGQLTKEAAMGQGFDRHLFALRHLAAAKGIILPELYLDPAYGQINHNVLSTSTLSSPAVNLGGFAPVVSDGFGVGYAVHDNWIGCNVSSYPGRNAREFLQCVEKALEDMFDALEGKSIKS

Mus musculus = assay: Reduction in glucose level in db/db mouse at 30 mg/kgl/day, po for 12 days; format: functional; parameters: scale not given: the % may be the effect or the level left; conditions: dose 30 mg/kg
[8] = Inhibition of carnitine palmitoyltransferase in rat heart mitochondria assessed as conversion of [14C]palmitic acid to [14C]palmitoylcarnitine by radiometric assay
[9] = Inhibition of carnitine palmitoyltransferase in rat liver mitochondria assessed as conversion of [14C]palmitic acid to [14C]palmitoylcarnitine by radiometric assay
[10] = Critical micelle concentration of compound; format: physicochemical
[11] = target: T1, Carnitine O-palmitoyltransferase 1, liver isoform; assay: Inhibition of CPT1A
[12] = target: T3, Carnitine O-palmitoyltransferase 1, muscle isoform; assay: Inhibition of CPT1B

CCCCCc1ccc(S(=O)(=O)NC2(CC(=O)[O-])CCC[N+](C)(C)C2)cc1 (stereo not drawn)
IC50 [1]: < 1 µM

O=C(NCc1cccs1)c1nn(Cc2cccc(C(F)(F)F)c2)c2ccccc12
IC50 [2]: > 100 µM
IC50 [3]: > 100 µM
IC50 [4]: 0.026 µM

O=C(O)C(=O)c1ccc(OCCOc2ccc3ccccc3c2)s1
IC50 [5]: > 100 µM
IC50 [6]: 25.5 µM
IC50 [7]: 4.7 µM
IC50 [2]: > 100 µM
IC50 [3]: 0.16 µM
IC50 [4]: 2.4 µM

N[C@H](C(=O)O)c1ccc(O)cc1 [OXFENICINE]
IC50 [5]: > 100 µM
IC50 [6]: > 100 µM
IC50 [7]: > 100 µM
IC50 [3]: > 100 µM
IC50 [4]: > 100 µM

O=C(COc1ccccc1)N1CCCC[C@@H]1c1nc(-c2ccccn2)cs1
IC50 [7]: 4.8 µM
IC50 [2]: 30.7 µM
IC50 [3]: > 100 µM
IC50 [4]: 0.02 µM

CCCCCCOc1cccc(OCCCCNC(=O)N[C@H](CC(=O)[O-])C[P+](C)(C)C)c1
Activity (Mus musculus): 30%
IC50 [8]: 57.3 µM
IC50 [9]: 0.12 µM
CMC [10]: 0.55 mM

CCCCCc1ccc(S(=O)(=O)NC2(CC(=O)[O-])CC[N+](C)(C)CC2)cc1
IC50 [1]: < 1 µM

COc1ccc(Cl)cc1S(=O)(=O)N1CCc2ccc(C(=O)Nc3ccc(C(=O)O)cc3)cc21
IC50 [7]: 0.74 µM
IC50 [2]: 3.2 µM
IC50 [3]: > 100 µM
IC50 [4]: 0.021 µM

CCCCCCCC[C@H]1OC(=O)C(CSCCNC(=O)CCNC(=O)[C@H](O)C(C)(C)COP(=O)(O)OP(=O)(O)OC[C@H]2O[C@@H](n3cnc4c(N)ncnc43)[C@H](O)[C@@H]2OP(=O)(O)O)[C@@H]1C(=O)O (stereo partly drawn)
IC50 [11]: 0.24 µM
IC50 [12]: 0.36 µM

COc1ccc(Cl)cc1S(=O)(=O)N1CC(C(=O)O)Oc2ccc(C(=O)Nc3cccc(F)c3)cc21 (stereo not drawn)
IC50 [7]: > 100 µM
IC50 [2]: > 100 µM
IC50 [3]: 3.4 µM

O=C(O)c1ccc(NC(=O)c2cccc(NS(=O)(=O)c3ccc(Cl)c(Cl)c3)c2)cc1
IC50 [2]: 28.5 µM
IC50 [3]: 6.4 µM

COc1ccc(-c2noc([C@H]3CCCCN3C(=O)COc3ccccc3)n2)cc1
IC50 [2]: > 100 µM
IC50 [3]: > 100 µM
IC50 [4]: 0.065 µM
